Experiment [1] concerns other fluorescently labeled proteins (unrelated to human IgG). The experiment is described as follows: Control microarray screening with unrelated fluorescently labeled proteins. Particulars: same slide screened with other fluorescently labeled proteins; no positive binding.
Experiment [2] has as its system T1, human IgG.
T1 construct: array signal (fluorescence units); other: spot intensity, background subtracted; human IgG-Cy3; array signal class; other: symbol in brackets after the fluorescence units; microarray hit strength in words; other: based on spot intensity, human IgG-Cy3; fused on or other part: Cy3 dye coupled through the NHS ester (chemical label, no fusion)
Kind of experiment: Small-molecule microarray screening with Cy3-labeled human IgG. It counts as binding. Particulars: for microarray hit strength in words: based on spot intensity; for array signal (fluorescence units): spot intensity, background subtracted. An excerpt:
Human IgG was fluorescently labeled with Cy3-NHS to allow for sensitive visualization of small molecule-IgG interactions on the array. […] The resulting scans were typical to that seen in FIG. 1. […] The spot intensities of these molecules are given in Table 1, with the background subtracted accordingly.
Preparation and Analysis of Small-Molecule Arrays. Preparation of Slides Activated with N-Hydroxysuccinimide Esters. 2 Briefly, 25 mm×75 mm slides (Fisher Scientific) were cleaned in piranha solution (sulfuric acid/hydrogen peroxide, 7:3). An amine functionality was incorporated onto the slides by silanization using a solution of 3% (aminopropyl)triethoxysilane in 2% water and 95% ethanol. After 1-2 h of soaking, the slides were washed with ethanol and cured at 150° C. for at least 2 h. Subsequently, the amine slides were incubated in a solution of 180 mM succinic anhydride in DMF for 30 min thereafter were transferred to a boiling water bath for 2 min. The slides were washed again in ethanol and dried under a stream of nitrogen. The carboxylic acid moieties now created on the slide surface were activated with a solution of 100 mM of TBTU (O-(benzotriazol-1-yl)-N,N,N,N-tetramethyluronium tetrafluoroborate), 200 mM DIEA, and 100 mM N-hydroxysuccinimide in DMF, thus generating the NHS-derivatized slides.
Microarray Printing. By individually weighing the solid compounds, triazine stock solutions were prepared to 2.5 mM in DMF, and 40-iL preparations were distributed across seven 384-well plates to give a total of 2688 distinct and pure compounds. Slides were spotted on an ESI SMA arrayer (Ontario, Canada) with the printhead installed with eight ArrayIt Chipmaker 7 Microspotting pins (Telechem, U.S.A.). Printing was performed in duplicate, and the pins were washed and sonicated in ethanol between samples. A repotting blotting process was also performed on plain slides to ensure spot uniformity. An additional solution of 0.2 mM Cy3-NH2 11 reference was spotted at the ends of the grids using a final eighth plate.
After spotting, the slides were allowed to sit for at least 12 h in situ and then were quenched by washing in an 1% ethanolamine (in DMF) bath for 2 h. After rinsing with Journal of Combinatorial Chemistry Discovery of Small-Molecule Ligands of Human IgG E ethanol and drying, the arrayed slides were stored in a desiccator at 4° C. The slides were stable for extended periods and, when required, were simply brought to room temperature.
Protein Screening with Labeled Human IgG. Proteins were tagged with Cy3-NHS by incubating 5 iL of 20 mM Cy3-NHS (Amersham Biosciences, U.K.) with 200 ig of human IgG (Calbiochem, U.S.A.) in a sodium bicarbonate buffer at pH 8. After 1 h of incubation, the labeled protein was separated from the free dye by a NAP-5 Sephadex G-50 column (Amersham Biosciences, U.K.). Before incubation with the labeled protein, the slides were preblocked to remove any nonspecific binding by soaking in 1% BSA in PBS for 1 h. After a brief rinsing with water, the slides were incubated with the labeled IgG.
A 1000-fold dilution of the above protein preparation was used as the incubation solution in a PBS buffer containing 1% BSA with the small-molecule arrays using the cover slip method for 30 min in a humid incubation chamber. Excess IgG was then removed by washing with distilled water. The background was further reduced using repeated washes with PBST.
Slide Scanning and Analysis. Slides were scanned on an ArrayWoRx scanner (Applied Precision, U.S.A.). Excel sheets were prepared to assign various compounds to specific numberings that could be readily tallied with reference numbers generated by the program. The ArrayWoRx software allows generation of reference files in which the spotting arrangement and the program overlay the spots on the results obtained, allowing compounds to be assigned in a rational fashion to every position. […]

The target in experiment [3] is T2, human IgG.
T2 construct: Kd/M; other: SPR, small molecule premixed with protein A, IgG immobilized; averaged dissociation constant; other: protein A with IgG alone
The experiment is described as follows: SPR (Biacore X) competitive binding with protein A on CM-5 chip immobilized with human IgG, dissociation constants. On the procedure: Dissociation constants were determined for each of the compounds selected using SPR on a Biacore X system with BiaEvaluation software. Competitive binding experiments were performed with differentially proportioned mixtures of a small molecule and protein A on a CM-5 chip immobilized with human IgG (see Supporting Information) (Table 1), which also ensures the small molecule binding to the same Scheme 2. General Experimental Scheme a (a) Directed immobilization of triazine libraries to generate a high-density microarray. (B) Incubation with a fluorescently labeled protein. (C) Removal of the unbound protein through washing. (D) Detection with instantaneous deconvolution of positive hits. (E) Assessing efficacy of hits using SPR. An averaged dissociation constant of 1.25×10−9 M was obtained for protein A with IgG alone. Further assessments made by passing 2.5 iM of a small molecule against the IgG surface were also performed to give measurable association levels that correlate with binding affinities (Table 1). Immobilizing the small molecules and applying IgG in the solution phase obtained equivalent binding measurements; however, by employing the competitive binding method described, a single chip surface may be used for screening against multiple potential small-molecule ligands, economizing the process. A φ2 value of <10 was obtained for all Kd measurements, denoting good statistical validity of the results obtained.
Surface Plasmon Resonance (SPR) Determination of Dissociation Constants. Maintenance. SPR measurements were made on a Biacore X system (Biacore AB, Uppsala, Sweden). Various maintenance steps were performed to ensure that the instrument was kept in good working conditions. The integrated flow cell was washed, sanitized, and maintained using standard cleansing reagents on a weekly basis. Calibration checks were performed quarterly to ensure that the signal was of good quality, and the instrument was kept separate from other equipments to prevent interference. When not in use, the system was docked with a spare chip and flushed with water at a low flow rate of 5 iL/min to prevent clogging. The system was primed at least twice before use or for the purpose of initiating a new buffer type. A desorb process was performed every 2 days during periods of active use to remove proteins or other contaminating compounds that may have accumulated within the flow cell.
Procedures. Various approaches were conceived to assess the Kd values of the interactions. One successful method immobilized the small molecule on the CM-5 sensor chips and ran them through varying concentrations of IgG. […] We conceived that it would be easier to immobilize IgG on the surface and apply differing proportioned mixtures of the “hit” small molecule and protein A (Amersham Biosciences, U.K.). […]
Background: Surface plasmon resonance follows binding to a sensor surface in real time, without labels.

Setting [4] is: SPR, small molecule premixed with protein A, IgG immobilized, read-out: Kd/M.

Where two headings read alike, the source gives them in different places. Some results are limits rather than exact numbers.

This note sets out measurements from patent US20090286693A1, “MICROARRAYS OF TAGGED COMBINATORIAL TRIAZINE LIBRARIES” (New York University, NYU Medical Center, Department of …, priority 2001, published 2009).

As for `NCCOCCOCCNC(=O)c1ccc(CNc2nc(NCC3CCCCC3)nc(NC3CCC3)n2)cc1` [AMD10], the “specificity of binding toward human IgG” value in experiment [1] was “highly specific”. Moreover, in the experiment with human IgG [2], the “microarray hit strength in words” value was “strongest hits” and the “array signal (fluorescence units)” value was determined as 179 fluorescence units. Besides, on human IgG [3] (setting [4]), the Kd came out at 4.35 µM.
In the case of `NCCOCCOCCNC(=O)c1ccc(CNc2nc(NCC3CCCCC3)nc(NC3CC4CCC3C4)n2)cc1` (stereo not drawn) [AMD03], the “specificity of binding toward human IgG” value in experiment [1] was “highly specific”. Further, in the experiment on human IgG [2], the “microarray hit strength in words” value is “strongest hits” and the “array signal (fluorescence units)” value was found to be 185 fluorescence units. Moreover, the Kd on human IgG [3] (setting [4]) stood at 2.02 µM.
As for `COc1ccc(CNc2nc(Nc3ccc(CC(=O)NCCOCCOCCN)cc3)nc(N3CCCCC3)n2)cc1` [APF29], in the experiment with human IgG [2], the “microarray hit strength in words” value is reported as “negative” and the “array signal (fluorescence units)” value was under 10 fluorescence units. Also, the Kd at human IgG [3] (setting [4]) turned out to be 151 µM.
“protein A: staphylococcal protein A (Amersham Biosciences), high molecular weight IgG ligand used as SPR competitor [reference compound]”: the Kd on human IgG [3] (protein A with IgG alone, read-out: averaged dissociation constant) stood at 0.00125 µM.
